This note sets out measurements from US8338039B2, “Fuel cell” (Sony Corporation, priority 2009, dated 2012).

Data set [1] in a line: Dissolution of additive in the fuel solution. Format: physicochemical. The following applies: fuel solution containing 1% ethanol; 1% DEET. The method, then:
The fuel solution is a pH buffer solution composed of 2.0 M imidazole/H2SO4, 0.4 M glucose, and ethanol, pH 7.0. […] The plant essential oil is added to the fuel solution and suspended therein by stirring immediately before current measurement.

Data set [2] relates to anode having the enzyme catalyst (glucose dehydrogenase, diaphorase). In words: Current generated by the enzyme-catalyst anode of the fuel cell with additive in the fuel solution. Format: biochemical. The method, then:
Tests were conducted under the following conditions to investigate how the plant essential oil added to the fuel solution affects the fuel cell performance. The plant essential oils used for the test are nutmeg oil, lemongrass oil, and palmarosa oil. The concentration of each plant essential oil in the fuel solution is 1%. The control substance is N,N-diethyl-m-toluamide (DEET), which is an active ingredient used for most insect repellent sprays. The concentration of DEET in the fuel solution is 1%. Incidentally, the concentration of DEET in the formulation is required to be less than 12% according to the Japanese regulation. The fuel solution is a pH buffer solution composed of 2.0 M imidazole/H2SO4, 0.4 M glucose, and ethanol, pH 7.0. […] The plant essential oil is added to the fuel solution and suspended therein by stirring immediately before current measurement. The electrode is one which is made of carbon fiber (1 mm thick). The electrode is coated with an immobilizing agent which is composed of the following ingredients. A mixture of 1.0 PLL and 0.0625 glutaraldehyde, 75.2 μL A solution of glucose dehydrogenase (150 mg/mL), 12.4 μL A solution of diaphorase (150 mg/mL), 1.6 μL A solution of NADH (40.96 mg/mL), 4 μL A solution of AQ2S (60 mM), 37.4 μL An enzyme produced by Amano Enzyme Co., Ltd. is immobilized on the above-mentioned immobilizing agent. […]

As to `CCN(CC)C(=O)c1cccc(C)c1` [DEET, N,N-diethyl-m-toluamide], the “solubility in the fuel solution” value in data set [1] is “dissolves 1% DEET completely”. Moreover, the “current value produced by the enzymatic catalyst at the anode, compared with fuel solution not incorporated with the additive” value in data set [2] (1% additive in fuel solution (2.0 M imidazole/H2SO4, 0.4 M glucose, ethanol, pH 7.0), carbon fiber anode) is listed as “lower current value”. Also, the “effect on the fuel cell performance” value in data set [2] (added to the fuel solution at 1%) is given as “deteriorates the fuel cell performance”.
